According to article PMC2746281 (PLoS ONE, 2009):
Read-outs that look alike come from different tables or passages of the source.

Key:
VEGFR2 = VEGFR2 (Homo sapiens, UniProt P35968); test: Recombinant kinase ELISA assay, VEGFR2; format: biochemical; details: recombinant human enzyme; ELISA-based assay, poly(Glu,Tyr 4:1) substrate
Protocol: (§1) Full details for the generation of recombinant human KIT intracellular domain and other protein kinases (including Lyn, platelet derived growth factor receptor β, epidermal growth factor receptor, fibroblast growth factor receptor 1, Src, HCK, PYK, FES, Btk, Bmx, c-Ret, c-Fms, Syk, and c-Met) are provided in the Supplemental Methods (see Supporting Information; Methods S1). Experiments on ABL1, Akt1, protein kinase C-α, insulin-like growth factor receptor 1, and Pim1 were carried out by Proqinase (Germany). All other recombinant protein kinases were performed in-house using an enzyme-linked immunoassay; experimental details are provided in the Supplemental Methods (see Supporting Information; Methods S1).

[1] = target: Fibroblast growth factor receptor 1 (Homo sapiens, UniProt P11362); test: Ba/F3 cell proliferation (WST-1), FGFR1; design: expressed in transfected cells; host or cells: Ba/F3 (general description; not repeated for this kinase); details: Ba/F3 cells expressing the enzyme, read-out: Cell-based assay IC50, Fibroblast growth factor receptor 1
Bmx = target: T1, Bmx (Homo sapiens, UniProt P51813); test: Recombinant kinase ELISA assay, Bmx; format: biochemical; details: recombinant human enzyme; ELISA-based assay, poly(Glu,Tyr 4:1) substrate
T1 construct: Bmx (2–675; BC016652); 6xHN (N); made in house; host or cells: baculovirus, Sf9 insect cells
Protocol: as §1
(§2) The sequences encoding PDGF receptor β (residues 554–1106; GenBank accession no. BC032224), Lyn B (2–583; accession no. BC059394), fibroblast growth factor receptor 1 (572–959; accession no. BC018128), Src (2–536; accession no. BC011566), Btk (2–659; accession no. BC109079), Bmx (2–675; accession no. BC016652), c-Ret (713–1114; accession no. BC004257), c-Fms (538–972; BC047531), Syk (2–612; BC011399), Hck (2-526; accession no. BC014435), Fes (2-822; accession no. BC035357), PYK2 (2-1006; accession no. BC042599) and c-Met (949–1398; accession no. lifeseq3489592) were amplified by PCR from IMAGE cDNA clones purchased from Openbiosystems. […]

recombinant human KIT = recombinant human KIT (Homo sapiens, UniProt P10721)
Protocol: Tyrosine phosphorylation by KIT was assayed by measuring the incorporation of phosphate into poly(Glu,Tyr 4∶1). […] Recombinant human KIT tyrosine kinase assays were performed using an ELISA-based assay with poly(Glu,Tyr 4∶1) as a substrate.
A 96-well microtitre plate (Immulon 2HB; ThermoLifeScience, Finland) was coated overnight with 0.25 mg/ml poly(Glu,Tyr 4:1), rinsed twice with 250 µl of washing buffer (10 mM phosphate-buffered saline [pH 7.4] and 0.05% Tween 20) and dried for 2 hours at room temperature. […] Reactions were initiated upon introduction of the enzyme and terminated with the addition of one reaction volume (50 μl) of 100 mM EDTA per 5 M urea mix. Plates were washed three times and incubated with 1:30,000 horseradish peroxidase-conjugated anti-phosphotyrosine monoclonal antibody (Sigma-Aldrich, France), then washed three times and incubated with tetramethylbenzidine. The final reaction product was quantified by spectrophotometry at 450 nm.

Jak2 = Jak2 (Homo sapiens, UniProt O60674); test: Recombinant kinase screen (Proqinase), Jak2; format: biochemical; details: recombinant human enzyme; single experiment, kinase screen by Proqinase
Lyn B = target: T2, Lyn B (Homo sapiens, UniProt P07948); test: Recombinant kinase ELISA assay, Lyn B; format: biochemical; details: recombinant human enzyme; ELISA-based assay, poly(Glu,Tyr 4:1) substrate
T2 construct: Lyn B (2–583; BC059394); 6xHN (N); made in house; host or cells: baculovirus, Sf9 insect cells
Protocol: as §1

Syk = target: T3, Syk (Homo sapiens, UniProt P43405); test: Recombinant kinase ELISA assay, Syk; format: biochemical; details: recombinant human enzyme; ELISA-based assay, poly(Glu,Tyr 4:1) substrate
T3 construct: Syk (2–612; BC011399); 6xHN (N); made in house; host or cells: baculovirus, Sf9 insect cells
Protocol: as §1, §2

[2] = system: primary BMMCs from mice expressing wild-type KIT; test: SCF-stimulated proliferation and KIT tyrosine phosphorylation in primary BMMCs; format: cell-based; details: Mus musculus, BMMC, primary murine BMMCs, read-out: IC50, SCF-stimulated cell proliferation and tyrosine phosphorylation of KIT in BMMCs
Protocol: (B) western blotting analysis of HMC-1α155 tyrosine phosphorylation. […] (D) Western blotting analysis of BMMC tyrosine phosphorylation. Cell proliferation was assessed by WST-1 colorimetric assay. […] MW = molecular weight.

c-Fms = target: T4, c-Fms (Homo sapiens, UniProt P07333); test: Recombinant kinase ELISA assay, c-Fms; format: biochemical; details: recombinant human enzyme; ELISA-based assay, poly(Glu,Tyr 4:1) substrate
T4 construct: c-Fms (538–972; BC047531); 6xHN (N); made in house; host or cells: baculovirus, Sf9 insect cells
Protocol: as §1, §2

KIT Δ27 (murine) = target: T5, KIT Δ27 (murine) (Mus musculus, UniProt P05532, DEL551-559); test: Ba/F3 cell proliferation (WST-1), KIT Δ27; details: Ba/F3 cells expressing the enzyme, read-out: Cell-based assay IC50, KIT Δ27 (murine)
T5 construct: expressed in transfected cells; host or cells: Ba/F3

Ba/F3 cells = test: IL-3-stimulated proliferation of Ba/F3 cells expressing human wild-type KIT; format: cell-based; details: Mus musculus, BaF3, read-out: IC50 for inhibition of IL-3-stimulated proliferation
Protocol: Cells were grown for 48 hours at 37°C and then incubated with 10 µl/well of WST-1 reagent (Roche Applied Science, France) for 3 hours at 37°C. The amount of formazan dye formed was quantified by its absorbance at 450 nm using a scanning multiwell spectrophotometer (MultiSkan MS, Thermo-LabSystems, France). A blank well without cells was used as a background control for the spectrophotometer and all assays were performed in triplicate.

c-Met = target: T6, c-Met (Homo sapiens, UniProt P08581); test: Recombinant kinase ELISA assay, c-Met; format: biochemical; details: recombinant human enzyme; ELISA-based assay, poly(Glu,Tyr 4:1) substrate
T6 construct: c-Met (949–1398); 6xHN (N); made in house; host or cells: baculovirus, Sf9 insect cells
Protocol: as §1, §2

recombinant human KIT, sequence (P10721 567-976): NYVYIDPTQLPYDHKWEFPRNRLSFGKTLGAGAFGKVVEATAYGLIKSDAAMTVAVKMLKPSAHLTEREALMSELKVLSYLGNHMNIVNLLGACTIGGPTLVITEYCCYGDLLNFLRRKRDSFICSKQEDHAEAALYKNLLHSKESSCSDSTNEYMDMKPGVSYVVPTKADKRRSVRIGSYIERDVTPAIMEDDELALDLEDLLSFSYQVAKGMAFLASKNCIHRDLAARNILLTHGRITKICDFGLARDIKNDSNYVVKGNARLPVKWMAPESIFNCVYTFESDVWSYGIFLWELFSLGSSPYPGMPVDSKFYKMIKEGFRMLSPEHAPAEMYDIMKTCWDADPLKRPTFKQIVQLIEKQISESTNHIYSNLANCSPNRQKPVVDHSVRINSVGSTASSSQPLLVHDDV
VEGFR2, sequence (P35968 20-1356): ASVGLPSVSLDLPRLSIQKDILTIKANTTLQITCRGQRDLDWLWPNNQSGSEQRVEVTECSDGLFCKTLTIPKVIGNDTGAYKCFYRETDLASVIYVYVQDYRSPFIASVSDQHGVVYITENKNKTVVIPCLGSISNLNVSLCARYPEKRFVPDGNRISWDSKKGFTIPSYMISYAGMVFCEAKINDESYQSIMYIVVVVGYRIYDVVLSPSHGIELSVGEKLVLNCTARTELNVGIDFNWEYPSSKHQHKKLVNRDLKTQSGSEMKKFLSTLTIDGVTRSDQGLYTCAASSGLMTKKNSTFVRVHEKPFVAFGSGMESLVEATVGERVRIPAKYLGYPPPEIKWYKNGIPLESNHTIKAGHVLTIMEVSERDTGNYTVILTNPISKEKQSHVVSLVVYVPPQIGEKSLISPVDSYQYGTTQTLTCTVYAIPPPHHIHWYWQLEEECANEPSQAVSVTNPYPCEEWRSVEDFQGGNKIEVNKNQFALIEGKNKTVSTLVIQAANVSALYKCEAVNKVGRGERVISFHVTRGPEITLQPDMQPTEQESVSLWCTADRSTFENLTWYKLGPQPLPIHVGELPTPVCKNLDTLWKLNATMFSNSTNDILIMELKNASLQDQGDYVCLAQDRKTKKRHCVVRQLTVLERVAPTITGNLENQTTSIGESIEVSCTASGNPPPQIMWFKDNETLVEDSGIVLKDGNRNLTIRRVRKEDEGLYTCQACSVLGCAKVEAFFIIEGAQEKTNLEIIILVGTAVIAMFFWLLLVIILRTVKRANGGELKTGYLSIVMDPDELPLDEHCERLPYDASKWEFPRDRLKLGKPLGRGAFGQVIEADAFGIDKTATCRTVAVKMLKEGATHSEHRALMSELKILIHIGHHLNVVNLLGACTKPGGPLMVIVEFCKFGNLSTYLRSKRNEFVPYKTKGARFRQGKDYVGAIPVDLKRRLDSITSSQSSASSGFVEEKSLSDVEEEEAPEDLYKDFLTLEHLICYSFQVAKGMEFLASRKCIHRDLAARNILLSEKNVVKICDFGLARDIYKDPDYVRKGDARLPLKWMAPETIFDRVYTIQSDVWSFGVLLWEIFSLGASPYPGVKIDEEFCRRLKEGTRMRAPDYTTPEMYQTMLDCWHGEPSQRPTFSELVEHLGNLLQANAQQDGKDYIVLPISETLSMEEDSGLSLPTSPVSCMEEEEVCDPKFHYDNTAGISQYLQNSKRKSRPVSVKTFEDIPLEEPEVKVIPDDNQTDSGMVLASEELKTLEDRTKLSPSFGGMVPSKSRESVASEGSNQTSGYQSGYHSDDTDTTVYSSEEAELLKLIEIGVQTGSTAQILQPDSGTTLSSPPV
T5 sequence (P05532 with tags, fused parts or gaps isoform P05532-2 DEL547-555): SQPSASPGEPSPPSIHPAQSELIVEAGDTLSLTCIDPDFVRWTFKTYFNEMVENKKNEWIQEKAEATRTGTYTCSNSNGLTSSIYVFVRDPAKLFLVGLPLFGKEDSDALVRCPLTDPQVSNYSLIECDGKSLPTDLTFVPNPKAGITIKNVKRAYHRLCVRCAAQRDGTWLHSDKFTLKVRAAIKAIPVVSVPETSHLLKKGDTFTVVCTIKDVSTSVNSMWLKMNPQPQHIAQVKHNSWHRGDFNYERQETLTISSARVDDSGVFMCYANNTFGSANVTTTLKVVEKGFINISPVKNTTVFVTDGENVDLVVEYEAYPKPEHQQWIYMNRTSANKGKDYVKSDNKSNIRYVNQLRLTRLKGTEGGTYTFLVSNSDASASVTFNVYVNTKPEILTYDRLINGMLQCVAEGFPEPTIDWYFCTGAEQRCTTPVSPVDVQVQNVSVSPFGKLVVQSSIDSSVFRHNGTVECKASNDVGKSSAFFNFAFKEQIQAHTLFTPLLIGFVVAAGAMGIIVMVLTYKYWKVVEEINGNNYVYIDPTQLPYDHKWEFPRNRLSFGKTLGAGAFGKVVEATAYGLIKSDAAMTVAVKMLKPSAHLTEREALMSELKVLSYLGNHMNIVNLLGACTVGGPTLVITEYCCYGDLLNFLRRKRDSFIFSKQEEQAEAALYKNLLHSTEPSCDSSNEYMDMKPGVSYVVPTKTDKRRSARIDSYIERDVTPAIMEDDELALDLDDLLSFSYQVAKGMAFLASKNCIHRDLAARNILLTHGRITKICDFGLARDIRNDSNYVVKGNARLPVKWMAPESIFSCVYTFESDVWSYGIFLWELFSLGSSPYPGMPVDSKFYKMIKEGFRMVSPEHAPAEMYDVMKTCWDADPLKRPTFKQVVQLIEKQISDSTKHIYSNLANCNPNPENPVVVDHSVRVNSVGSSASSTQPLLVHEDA
Jak2, sequence (O60674 whole entry): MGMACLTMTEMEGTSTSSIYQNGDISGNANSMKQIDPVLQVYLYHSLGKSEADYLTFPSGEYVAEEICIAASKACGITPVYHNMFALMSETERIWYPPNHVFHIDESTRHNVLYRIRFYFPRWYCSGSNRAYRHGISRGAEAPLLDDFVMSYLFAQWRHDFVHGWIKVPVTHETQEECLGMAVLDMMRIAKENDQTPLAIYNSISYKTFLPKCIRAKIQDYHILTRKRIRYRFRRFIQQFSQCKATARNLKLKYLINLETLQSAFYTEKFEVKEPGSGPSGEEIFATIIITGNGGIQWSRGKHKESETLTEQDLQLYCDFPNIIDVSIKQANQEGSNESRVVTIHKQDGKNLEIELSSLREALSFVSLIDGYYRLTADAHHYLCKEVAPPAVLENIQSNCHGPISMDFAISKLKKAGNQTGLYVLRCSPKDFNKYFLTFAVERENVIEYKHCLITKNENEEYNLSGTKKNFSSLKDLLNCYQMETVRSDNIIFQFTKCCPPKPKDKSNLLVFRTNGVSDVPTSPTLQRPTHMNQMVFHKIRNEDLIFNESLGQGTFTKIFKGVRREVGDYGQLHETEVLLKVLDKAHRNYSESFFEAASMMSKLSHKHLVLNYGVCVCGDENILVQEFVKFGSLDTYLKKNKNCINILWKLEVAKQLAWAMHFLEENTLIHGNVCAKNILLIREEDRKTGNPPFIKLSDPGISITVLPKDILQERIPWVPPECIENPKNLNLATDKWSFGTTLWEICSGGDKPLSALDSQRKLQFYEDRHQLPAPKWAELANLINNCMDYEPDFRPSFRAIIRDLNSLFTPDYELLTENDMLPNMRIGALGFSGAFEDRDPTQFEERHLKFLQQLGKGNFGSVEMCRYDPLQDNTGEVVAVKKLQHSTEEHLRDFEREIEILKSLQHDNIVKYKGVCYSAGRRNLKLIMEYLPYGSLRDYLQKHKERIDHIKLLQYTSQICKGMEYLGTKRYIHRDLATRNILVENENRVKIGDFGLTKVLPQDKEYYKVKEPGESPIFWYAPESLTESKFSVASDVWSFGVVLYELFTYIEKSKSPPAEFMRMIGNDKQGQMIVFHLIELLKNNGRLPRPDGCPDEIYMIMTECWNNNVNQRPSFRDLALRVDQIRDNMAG
Fibroblast growth factor receptor 1, sequence (P11362 22-822): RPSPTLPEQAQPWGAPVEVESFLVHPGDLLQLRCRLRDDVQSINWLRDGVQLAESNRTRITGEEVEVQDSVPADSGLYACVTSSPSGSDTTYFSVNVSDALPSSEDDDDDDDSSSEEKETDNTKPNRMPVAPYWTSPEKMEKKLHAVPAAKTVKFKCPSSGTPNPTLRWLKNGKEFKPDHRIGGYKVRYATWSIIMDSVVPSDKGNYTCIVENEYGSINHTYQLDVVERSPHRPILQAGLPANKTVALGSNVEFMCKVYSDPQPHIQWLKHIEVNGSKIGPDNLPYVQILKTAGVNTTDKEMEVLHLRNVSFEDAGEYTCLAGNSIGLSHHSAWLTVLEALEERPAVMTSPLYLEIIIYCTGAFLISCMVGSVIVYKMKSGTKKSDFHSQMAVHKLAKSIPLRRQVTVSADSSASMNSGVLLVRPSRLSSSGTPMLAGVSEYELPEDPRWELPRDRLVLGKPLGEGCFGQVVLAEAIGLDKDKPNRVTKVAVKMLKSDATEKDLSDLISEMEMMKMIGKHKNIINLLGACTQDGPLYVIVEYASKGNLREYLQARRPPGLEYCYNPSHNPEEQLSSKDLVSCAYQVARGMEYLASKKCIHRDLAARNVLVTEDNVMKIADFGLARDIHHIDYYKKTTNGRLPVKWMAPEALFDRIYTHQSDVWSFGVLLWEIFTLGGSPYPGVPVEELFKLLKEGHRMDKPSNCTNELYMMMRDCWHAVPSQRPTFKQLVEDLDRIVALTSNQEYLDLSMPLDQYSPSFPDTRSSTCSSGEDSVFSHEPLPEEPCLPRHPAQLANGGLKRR
T6 sequence (P08581 949-1390 limits assumed): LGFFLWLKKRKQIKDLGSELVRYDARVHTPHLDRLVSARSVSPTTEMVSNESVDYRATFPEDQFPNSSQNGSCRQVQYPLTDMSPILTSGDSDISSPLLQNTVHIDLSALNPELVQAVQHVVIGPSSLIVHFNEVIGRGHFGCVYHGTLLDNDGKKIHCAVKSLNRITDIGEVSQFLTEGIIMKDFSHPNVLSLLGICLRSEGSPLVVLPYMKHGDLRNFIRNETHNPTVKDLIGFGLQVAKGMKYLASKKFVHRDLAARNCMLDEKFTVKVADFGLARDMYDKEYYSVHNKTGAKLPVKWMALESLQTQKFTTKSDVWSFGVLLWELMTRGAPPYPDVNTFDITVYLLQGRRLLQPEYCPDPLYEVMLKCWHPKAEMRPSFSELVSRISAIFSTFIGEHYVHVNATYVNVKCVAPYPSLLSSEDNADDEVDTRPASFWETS

**Q.** For `CS(=O)(=O)O.CS(=O)(=O)O.Cc1ccc(NC(=O)c2ccc(CN3CCN(C)CC3)cc2)cc1Nc1nc(-c2cccnc2)cs1` [masitinib, 4-(4-methylpiperazin-1-ylmethyl)-N-[4-methyl-3-(4-pyridin-3ylthiazol-2-ylamino)phenyl]benzamide-mesylate methane sulfonic acid salt], which IC50 (VEGFR2) is on record?
**A.** > 10 µM

**Q.** What about the IC50 [1] of the same molecule?
**A.** 7 ± 1.9 µM

**Q.** What about the IC50 (Bmx) of the same molecule?
**A.** > 10 µM

**Q.** What about the “mechanism of inhibition against ATP” value (recombinant human KIT; concentrations ≤500 nM) of the same molecule?
**A.** competitive inhibitor against ATP

**Q.** And the “mechanism of inhibition against ATP” value (recombinant human KIT; higher concentrations (>1 µM))?
**A.** mixed mechanism of inhibition against ATP

**Q.** And the IC50 (Jak2)?
**A.** > 10 µM

**Q.** And the IC50 (Lyn B)?
**A.** 0.51 ± 0.13 µM

**Q.** What about the IC50 (Syk) of the same molecule?
**A.** > 10 µM

**Q.** What about the IC50 [2] of the same molecule?
**A.** 0.2 ± 0.05 µM

**Q.** What about the IC50 (c-Fms) of the same molecule?
**A.** 1.48 ± 0.54 µM

**Q.** What about the IC50 (KIT Δ27 (murine)) of the same molecule?
**A.** 0.005 ± 0.0003 µM

**Q.** And the IC50 (Ba/F3 cells)?
**A.** > 5 µM

**Q.** What about the IC50 (c-Met) of the same molecule?
**A.** > 10 µM
